Measured values: ChEMBL document CHEMBL1151945 (J Med Chem, 2009)

Legend:
[1] = target: T1, Bifunctional dihydrofolate reductase-thymidylate synthase (Toxoplasma gondii, UniProt Q07422)
T1 sequence (Q07422 whole entry): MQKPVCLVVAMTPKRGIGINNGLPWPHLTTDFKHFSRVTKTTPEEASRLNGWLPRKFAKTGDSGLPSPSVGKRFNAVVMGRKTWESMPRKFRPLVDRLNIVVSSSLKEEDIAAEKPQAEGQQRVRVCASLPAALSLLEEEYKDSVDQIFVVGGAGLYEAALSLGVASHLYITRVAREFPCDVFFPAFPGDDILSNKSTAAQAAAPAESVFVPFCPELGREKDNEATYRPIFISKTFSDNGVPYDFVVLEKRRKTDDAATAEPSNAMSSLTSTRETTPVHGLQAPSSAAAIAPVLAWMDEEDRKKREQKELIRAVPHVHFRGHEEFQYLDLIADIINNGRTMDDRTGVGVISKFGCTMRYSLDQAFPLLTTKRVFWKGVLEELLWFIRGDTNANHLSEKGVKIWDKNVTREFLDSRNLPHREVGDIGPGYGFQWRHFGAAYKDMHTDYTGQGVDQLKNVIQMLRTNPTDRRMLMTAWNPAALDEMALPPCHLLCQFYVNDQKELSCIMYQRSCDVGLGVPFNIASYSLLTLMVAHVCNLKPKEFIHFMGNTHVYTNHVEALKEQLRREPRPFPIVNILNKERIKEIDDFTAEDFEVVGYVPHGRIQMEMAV

[2] = target: T2, Dihydrofolate reductase (Homo sapiens, UniProt P00374)
T2 sequence (P00374 whole entry): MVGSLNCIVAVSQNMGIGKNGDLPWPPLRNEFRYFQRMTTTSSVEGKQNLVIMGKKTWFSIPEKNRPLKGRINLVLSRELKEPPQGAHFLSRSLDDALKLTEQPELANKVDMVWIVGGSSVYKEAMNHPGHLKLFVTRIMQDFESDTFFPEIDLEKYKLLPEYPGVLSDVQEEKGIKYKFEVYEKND

[3] = target: Thymidylate synthase (Homo sapiens, UniProt P04818)
[4] = target: T1, Bifunctional dihydrofolate reductase-thymidylate synthase; remark: listed apart in the source
[5] = target: Thymidylate synthase (Escherichia coli, UniProt C3SWJ7)
[6] = target: T3, Dihydrofolate reductase (Escherichia coli) (UniProt P0ABQ4); test: Inhibition of Escherichia coli dihydrofolate reductase at 3 uM
T3 sequence (whole entry): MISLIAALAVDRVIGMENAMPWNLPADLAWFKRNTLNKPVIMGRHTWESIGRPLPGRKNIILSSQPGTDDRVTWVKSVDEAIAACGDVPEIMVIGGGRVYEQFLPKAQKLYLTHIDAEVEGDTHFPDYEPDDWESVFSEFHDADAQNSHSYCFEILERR

[7] = cells; details: Homo sapiens, 786-0
[8] = test system: LOX IMVI; test: cells; details: Homo sapiens
[9] = test system: NCI-H23; test: cells; details: Homo sapiens
[10] = test system: CCRF-CEM; test: cells; details: Homo sapiens
[11] = test system: SN12C; test: cells; details: Homo sapiens
[12] = test system: M14; test: cells; details: Homo sapiens
[13] = test system: HCC 2998; test: cells; details: Homo sapiens
[14] = test system: MOLT-4; test: cells; details: Homo sapiens
[15] = test system: HL-60(TB); test: cells; details: Homo sapiens
[16] = test system: OVCAR-8; test: cells; details: Homo sapiens
[17] = test system: NCI-H460; test: cells; details: Homo sapiens
[18] = test system: HCT-116; test: cells; details: Homo sapiens
[19] = cells; details: Homo sapiens, NCI-H525
[20] = target: T3, Dihydrofolate reductase (Escherichia coli); test: Inhibition of Escherichia coli dihydrofolate reductase at 31 uM
[21] = target: Thymidylate synthase (Escherichia coli) (UniProt C3SWJ7); test: Inhibition of Escherichia coli thymidylate synthase at 23 uM
[22] = target: T3, Dihydrofolate reductase (Escherichia coli); test: Inhibition of Escherichia coli dihydrofolate reductase at 28 uM
[23] = target: T4, Bifunctional dihydrofolate reductase-thymidylate synthase (Toxoplasma gondii) (UniProt Q07422); details: 23 uM
T4 sequence (whole entry): T1 sequence (Q07422 whole entry)

[24] = target: T3, Dihydrofolate reductase (Escherichia coli); test: Inhibition of Escherichia coli dihydrofolate reductase at […]
[25] = target: T3, Dihydrofolate reductase (Escherichia coli); test: Inhibition of Escherichia coli dihydrofolate reductase at 27 uM

Sequence of Thymidylate synthase (Homo sapiens, UniProt P04818) (P04818 whole entry): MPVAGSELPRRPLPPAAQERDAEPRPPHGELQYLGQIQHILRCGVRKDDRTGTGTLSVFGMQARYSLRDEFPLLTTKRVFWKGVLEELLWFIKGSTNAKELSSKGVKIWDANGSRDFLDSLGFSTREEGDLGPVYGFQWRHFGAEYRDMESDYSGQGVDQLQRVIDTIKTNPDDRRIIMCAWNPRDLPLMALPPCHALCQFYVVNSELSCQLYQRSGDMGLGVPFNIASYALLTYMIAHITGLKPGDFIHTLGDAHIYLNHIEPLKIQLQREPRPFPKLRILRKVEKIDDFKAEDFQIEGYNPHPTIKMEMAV
Sequence of Thymidylate synthase (Escherichia coli, UniProt C3SWJ7) (C3SWJ7 whole entry): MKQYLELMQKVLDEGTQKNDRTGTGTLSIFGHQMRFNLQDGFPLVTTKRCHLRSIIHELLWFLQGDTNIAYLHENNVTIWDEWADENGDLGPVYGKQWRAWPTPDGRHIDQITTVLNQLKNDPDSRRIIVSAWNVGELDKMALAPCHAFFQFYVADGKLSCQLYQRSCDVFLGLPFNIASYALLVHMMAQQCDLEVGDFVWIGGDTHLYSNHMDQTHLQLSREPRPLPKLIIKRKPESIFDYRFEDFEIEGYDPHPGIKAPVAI
Sequence of Thymidylate synthase (Escherichia coli) (C3SWJ7 1-264): as the sequence (C3SWJ7 whole entry) above

CCc1sc2nc(N)[nH]c(=O)c2c1Sc1ccc(Cl)c(Cl)c1
IC50 [1]: 8.1 nM
IC50 [2]: 290 nM
IC50 [3]: 230 nM
IC50 [4]: 1000 nM
IC50 [5]: 2300 nM

CCc1sc2nc(N)[nH]c(=O)c2c1Sc1ccc(Br)cc1
IC50 [1]: 13 nM
IC50 [2]: 260 nM
IC50 [3]: 390 nM
IC50 [4]: 2200 nM
IC50 [5]: 2200 nM

CCc1sc2nc(N)[nH]c(=O)c2c1Sc1cccc(Cl)c1
IC50 [1]: 12 nM
IC50 [2]: 300 nM
IC50 [3]: 380 nM
IC50 [4]: 1800 nM
inhibition [6]: 0%
IC50 [5]: 2300 nM

CCc1sc2nc(N)[nH]c(=O)c2c1Sc1ccc(C(=O)N[C@@H](CCC(=O)O)C(=O)O)cc1
GI50 [7]: 817 nM
GI50 [8]: 90.9 nM
IC50 [1]: 2.1 nM
IC50 [2]: 19 nM
IC50 [3]: 54 nM
GI50 [9]: 9400 nM
GI50 [10]: 853 nM
GI50 [11]: 3310 nM
GI50 [12]: 4320 nM
GI50 [13]: 965 nM
GI50 [14]: 4780 nM
IC50 [4]: 90 nM
GI50 [15]: 497 nM
IC50 [5]: 18 nM
GI50 [16]: 579 nM
GI50 [17]: 959 nM
GI50 [18]: 284 nM
GI50 [19]: 7800 nM

CCc1sc2nc(N)[nH]c(=O)c2c1Sc1ccc(F)cc1
inhibition [20]: 15%
IC50 [1]: 25 nM
IC50 [2]: 620 nM
IC50 [3]: 1300 nM
IC50 [4]: 2600 nM
IC50 [5]: 2900 nM

CCc1sc2nc(N)[nH]c(=O)c2c1Sc1ccc([N+](=O)[O-])cc1
IC50 [1]: 8.7 nM
IC50 [2]: 260 nM
IC50 [3]: 220 nM
IC50 [4]: 1000 nM
IC50 [5]: 1700 nM

Cc1sc2nc(N)[nH]c(=O)c2c1Sc1ccc(C(=O)N[C@@H](CCC(=O)O)C(=O)O)cc1
GI50 [7]: > 100000 nM
GI50 [8]: 65600 nM
GI50 [9]: > 100000 nM
GI50 [10]: 94500 nM
GI50 [11]: > 100000 nM
GI50 [12]: > 100000 nM
GI50 [13]: > 100000 nM
GI50 [14]: > 100000 nM
GI50 [16]: > 100000 nM
GI50 [17]: 41200 nM
GI50 [18]: > 100000 nM
GI50 [19]: > 100000 nM

CCc1sc2nc(N)[nH]c(=O)c2c1Sc1ccc2ccccc2c1
IC50 [1]: 8.4 nM
IC50 [2]: 2200 nM
IC50 [3]: 2300 nM
IC50 [4]: 1100 nM
IC50 [5]: 1400 nM

CCc1sc2nc(N)[nH]c(=O)c2c1Sc1cc(OC)ccc1OC
inhibition [21]: 11%
IC50 [1]: 14 nM
IC50 [2]: 840 nM
IC50 [3]: 4600 nM
inhibition [22]: 0%
IC50 [5]: > 23000 nM
inhibition [23]: 29%

CCc1sc2nc(N)[nH]c(=O)c2c1Sc1cc(Cl)cc(Cl)c1
IC50 [1]: 14 nM
IC50 [2]: 280 nM
IC50 [3]: 690 nM
inhibition [24]: 0%
IC50 [4]: 1600 nM
IC50 [5]: 1200 nM

CCc1sc2nc(N)[nH]c(=O)c2c1Sc1ccc(Cl)cc1
IC50 [2]: 300 nM
IC50 [3]: 750 nM
IC50 [5]: 2500 nM

CCc1sc2nc(N)[nH]c(=O)c2c1Sc1ccccc1Cl
IC50 [1]: 27 nM
IC50 [2]: 600 nM
IC50 [3]: 1100 nM
IC50 [4]: 2500 nM
IC50 [5]: 2000 nM

CCc1sc2nc(N)[nH]c(=O)c2c1Sc1cc(OC)cc(OC)c1
IC50 [1]: 24 nM
IC50 [2]: 540 nM
IC50 [3]: 1200 nM
IC50 [4]: 2300 nM
inhibition [25]: 0%
IC50 [5]: 1800 nM

CCc1sc2nc(N)[nH]c(=O)c2c1Sc1ccncc1
IC50 [1]: 17 nM
IC50 [2]: 350 nM
IC50 [4]: 1700 nM
IC50 [5]: 2000 nM

CCc1sc2nc(N)[nH]c(=O)c2c1Sc1ccccc1
IC50 [1]: 33 nM
IC50 [2]: 2600 nM
IC50 [3]: 5600 nM
IC50 [4]: 8400 nM
IC50 [5]: 28000 nM
